PubChem BioAssay (NCI)
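Step 1: Grow cells in 96-well plates. Step 2: Expose to compound for 48 hours at 5 concentrations. Step 3: Interpolate endpoints linearly; if unreached, use highest concentration. TGI is the concentration that stops growth completely.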

Legend:
Assay in all cases: growth of human tumour cells (NCI), 48 h
RXF 393 renal = tested on: RXF 393 renal
SNB-19 CNS = tested on: SNB-19 CNS
BT-549 breast = tested on: BT-549 breast
KM12 colon = tested on: KM12 colon
UACC-257 melanoma = tested on: UACC-257 melanoma
NCI-H226 lung = tested on: NCI-H226 lung
TK-10 renal = tested on: TK-10 renal
SF-539 CNS = tested on: SF-539 CNS
MDA-N = tested on: MDA-N
RPMI-8226 leukemia = tested on: RPMI-8226 leukemia
OVCAR-4 ovarian = tested on: OVCAR-4 ovarian
UACC-62 melanoma = tested on: UACC-62 melanoma
OVCAR-3 ovarian = tested on: OVCAR-3 ovarian
NCI-H460 lung = tested on: NCI-H460 lung
K-562 leukemia = tested on: K-562 leukemia
HCT-15 colon = tested on: HCT-15 colon
HCC-2998 colon = tested on: HCC-2998 colon
A549 NSCLC = tested on: A549 NSCLC
HS 578T breast = tested on: HS 578T breast
PC-3 prostate = tested on: PC-3 prostate
NCI/ADR-RES ovarian = tested on: NCI/ADR-RES ovarian
HT29 colon = tested on: HT29 colon
CCRF-CEM leukemia = tested on: CCRF-CEM leukemia
MALME-3M melanoma = tested on: MALME-3M melanoma
IGROV1 ovarian = tested on: IGROV1 ovarian
MOLT-4 leukemia = tested on: MOLT-4 leukemia
OVCAR-8 ovarian = tested on: OVCAR-8 ovarian
786-0 renal = tested on: 786-0 renal
HL-60(TB) leukemia = tested on: HL-60(TB) leukemia
ACHN renal = tested on: ACHN renal
T-47D breast = tested on: T-47D breast
DU-145 prostate = tested on: DU-145 prostate
NCI-H23 lung = tested on: NCI-H23 lung
MDA-MB-231 breast = tested on: MDA-MB-231 breast
NCI-H522 lung = tested on: NCI-H522 lung
SW-620 colon = tested on: SW-620 colon
U251 CNS = tested on: U251 CNS
SK-MEL-28 melanoma = tested on: SK-MEL-28 melanoma
COLO 205 colon = tested on: COLO 205 colon
SK-MEL-2 melanoma = tested on: SK-MEL-2 melanoma
SF-268 CNS = tested on: SF-268 CNS
SR leukemia = tested on: SR leukemia
SK-OV-3 ovarian = tested on: SK-OV-3 ovarian
CAKI-1 renal = tested on: CAKI-1 renal
MDA-MB-435 = tested on: MDA-MB-435
OVCAR-5 ovarian = tested on: OVCAR-5 ovarian
LOX IMVI melanoma = tested on: LOX IMVI melanoma
HOP-92 NSCLC = tested on: HOP-92 NSCLC
SNB-75 CNS = tested on: SNB-75 CNS
EKVX NSCLC = tested on: EKVX NSCLC
A498 renal = tested on: A498 renal
UO-31 renal = tested on: UO-31 renal
HOP-62 NSCLC = tested on: HOP-62 NSCLC
SN12C renal = tested on: SN12C renal
SK-MEL-5 melanoma = tested on: SK-MEL-5 melanoma
HCT-116 colon = tested on: HCT-116 colon
MCF7 breast = tested on: MCF7 breast
SF-295 CNS = tested on: SF-295 CNS
M14 melanoma = tested on: M14 melanoma

`COc1ccc(/C(CC2OC(=O)c3ccccc32)=N\NC(=O)C[N+](C)(C)C)cc1` (configuration not stated) gave a TGI (RXF 393 renal) of 77.6 µM, a TGI (SNB-19 CNS) of 96.5 µM and a TGI (BT-549 breast) of 77.1 µM. For the same molecule, the TGI (KM12 colon) was 52 µM, the TGI (UACC-257 melanoma) was 91.8 µM and the TGI (NCI-H226 lung) was 62.6 µM. The TGI (TK-10 renal) was 87.8 µM, the TGI (SF-539 CNS) was greater than 100 µM and the TGI (MDA-N) was greater than 100 µM. For the same molecule, the TGI (RPMI-8226 leukemia) was 39.6 µM, the TGI (OVCAR-4 ovarian) was 78.5 µM and the TGI (UACC-62 melanoma) was 40.1 µM. It also gave a TGI (OVCAR-3 ovarian) greater than 100 µM, a TGI (NCI-H460 lung) of 66.7 µM and a TGI (K-562 leukemia) of 48.4 µM. It also gave a TGI (HCT-15 colon) of 44.8 µM, a TGI (HCC-2998 colon) of 30.9 µM and a TGI (A549 NSCLC) greater than 100 µM. For the same molecule, the TGI (HS 578T breast) was greater than 100 µM, the TGI (PC-3 prostate) was greater than 100 µM and the TGI (NCI/ADR-RES ovarian) was 56.7 µM. The TGI (HT29 colon) was 40.9 µM, the TGI (CCRF-CEM leukemia) was 72 µM and the TGI (MALME-3M melanoma) was greater than 100 µM. It also gave a TGI (IGROV1 ovarian) greater than 100 µM, a TGI (MOLT-4 leukemia) of 70.2 µM and a TGI (OVCAR-8 ovarian) of 52.9 µM. It also gave a TGI (786-0 renal) of 69.3 µM, a TGI (HL-60(TB) leukemia) greater than 100 µM and a TGI (ACHN renal) greater than 100 µM. It also gave a TGI (T-47D breast) greater than 100 µM, a TGI (DU-145 prostate) of 63.4 µM and a TGI (NCI-H23 lung) of 47.7 µM. It also gave a TGI (MDA-MB-231 breast) greater than 100 µM, a TGI (NCI-H522 lung) of 64.1 µM and a TGI (SW-620 colon) of 64.1 µM. It also gave a TGI (U251 CNS) of 36.3 µM, a TGI (SK-MEL-28 melanoma) of 55.5 µM and a TGI (COLO 205 colon) of 71 µM. For the same molecule, the TGI (SK-MEL-2 melanoma) was 94.2 µM, the TGI (SF-268 CNS) was greater than 100 µM and the TGI (SR leukemia) was 45.4 µM. The TGI (SK-OV-3 ovarian) was greater than 100 µM, the TGI (CAKI-1 renal) was greater than 100 µM and the TGI (MDA-MB-435) was 71.9 µM. It also gave a TGI (OVCAR-5 ovarian) greater than 100 µM, a TGI (LOX IMVI melanoma) of 65.9 µM and a TGI (HOP-92 NSCLC) of 67.8 µM. It also gave a TGI (SNB-75 CNS) of 75.6 µM, a TGI (EKVX NSCLC) greater than 100 µM and a TGI (A498 renal) of 60.1 µM. It also gave a TGI (UO-31 renal) of 79.6 µM, a TGI (HOP-62 NSCLC) greater than 100 µM and a TGI (SN12C renal) greater than 100 µM. For the same molecule, the TGI (SK-MEL-5 melanoma) was 59.9 µM, the TGI (HCT-116 colon) was 81.9 µM and the TGI (MCF7 breast) was greater than 100 µM. It also gave a TGI (SF-295 CNS) greater than 100 µM and a TGI (M14 melanoma) greater than 100 µM.
Molecule `O=C1C(Cl)C(c2cc3cc(Br)ccc3nc2Cl)N1c1ccc(Cl)cc1` (configuration not stated) has a TGI (RXF 393 renal) of 10.6 µM, a TGI (SNB-19 CNS) greater than 25 µM and a TGI (BT-549 breast) of 11.6 µM. For the same molecule, the TGI (KM12 colon) was greater than 25 µM, the TGI (UACC-257 melanoma) was 12.6 µM and the TGI (NCI-H226 lung) was 12.3 µM. The TGI (TK-10 renal) was 13.3 µM, the TGI (SF-539 CNS) was 9.41 µM and the TGI (MDA-N) was 15.9 µM. It also gave a TGI (RPMI-8226 leukemia) of 14.1 µM, a TGI (OVCAR-4 ovarian) of 9.4 µM and a TGI (UACC-62 melanoma) of 10.2 µM. It also gave a TGI (OVCAR-3 ovarian) of 13.8 µM, a TGI (NCI-H460 lung) of 20.9 µM and a TGI (K-562 leukemia) of 19.8 µM. It also gave a TGI (HCT-15 colon) of 13.3 µM, a TGI (HCC-2998 colon) of 8.04 µM and a TGI (A549 NSCLC) greater than 25 µM. For the same molecule, the TGI (HS 578T breast) was greater than 25 µM, the TGI (PC-3 prostate) was greater than 25 µM and the TGI (NCI/ADR-RES ovarian) was 16.7 µM. For the same molecule, the TGI (HT29 colon) was 19.6 µM, the TGI (CCRF-CEM leukemia) was 11.4 µM and the TGI (MALME-3M melanoma) was 8.91 µM. For the same molecule, the TGI (IGROV1 ovarian) was 7.17 µM, the TGI (MOLT-4 leukemia) was 10.6 µM and the TGI (OVCAR-8 ovarian) was greater than 25 µM. It also gave a TGI (786-0 renal) of 9.22 µM, a TGI (HL-60(TB) leukemia) of 15.5 µM and a TGI (ACHN renal) of 11.2 µM. For the same molecule, the TGI (T-47D breast) was 23.8 µM, the TGI (DU-145 prostate) was 19.7 µM and the TGI (NCI-H23 lung) was 17.2 µM. For the same molecule, the TGI (MDA-MB-231 breast) was 7.35 µM, the TGI (NCI-H522 lung) was 8.25 µM and the TGI (SW-620 colon) was greater than 25 µM. It also gave a TGI (SK-MEL-28 melanoma) greater than 25 µM, a TGI (COLO 205 colon) of 10.2 µM and a TGI (SK-MEL-2 melanoma) of 10.4 µM. For the same molecule, the TGI (SF-268 CNS) was 9.69 µM, the TGI (SR leukemia) was 7.46 µM and the TGI (SK-OV-3 ovarian) was greater than 25 µM. The TGI (CAKI-1 renal) was 9.3 µM, the TGI (MDA-MB-435) was 17.7 µM and the TGI (OVCAR-5 ovarian) was greater than 25 µM. For the same molecule, the TGI (LOX IMVI melanoma) was 3.38 µM, the TGI (HOP-92 NSCLC) was 7.2 µM and the TGI (SNB-75 CNS) was 19.5 µM. The TGI (EKVX NSCLC) was 8.13 µM, the TGI (A498 renal) was greater than 25 µM and the TGI (UO-31 renal) was 3.28 µM. For the same molecule, the TGI (HOP-62 NSCLC) was greater than 25 µM, the TGI (SN12C renal) was 8.8 µM and the TGI (SK-MEL-5 melanoma) was 6.38 µM. For the same molecule, the TGI (HCT-116 colon) was 12.5 µM, the TGI (MCF7 breast) was 7.47 µM and the TGI (SF-295 CNS) was greater than 25 µM. It also gave a TGI (M14 melanoma) of 20.9 µM.
